33 molecules from ChEMBL document CHEMBL1126033, “C-terminal modifications of nonpeptide renin inhibitors: improved oral bioavailability via modification of physicochemical properties” (J Med Chem, 1992) can be followed below.

In data set [1] the target is T1, Renin (Homo sapiens, UniProt P00797).
T1 sequence (P00797 whole entry): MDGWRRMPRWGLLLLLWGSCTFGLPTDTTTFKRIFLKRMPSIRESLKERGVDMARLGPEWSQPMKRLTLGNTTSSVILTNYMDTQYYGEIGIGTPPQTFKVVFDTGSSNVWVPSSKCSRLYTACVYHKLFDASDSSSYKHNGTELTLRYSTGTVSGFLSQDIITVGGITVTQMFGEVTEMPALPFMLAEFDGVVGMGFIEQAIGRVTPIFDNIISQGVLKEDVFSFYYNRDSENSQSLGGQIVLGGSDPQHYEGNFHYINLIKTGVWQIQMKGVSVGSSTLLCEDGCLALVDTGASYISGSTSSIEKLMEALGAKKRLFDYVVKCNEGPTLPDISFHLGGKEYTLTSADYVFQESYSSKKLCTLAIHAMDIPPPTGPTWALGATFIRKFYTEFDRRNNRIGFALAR
It counts as cell-free, Plasma.

Data set [2] concerns the target T1, Renin. Briefly: In vitro activity against human renin (pH 6.0).
The nature of data set [3]: Partition coefficient (logD6.5). Particulars: octanol/water, pH 6.5.
The nature of data set [4]: Partition coefficient (logD7.4). Particulars: octanol/water, pH 7.4.
Data set [5] can be described thus: Bioavailability in ferret. The conditions noted are these: in vivo.
Data set [6] concerns Mustela putorius furo. Description: Average area under curve value dosed at 0.3 mg/kg, iv in ferrets. The conditions noted are these: ferret, in vivo.
Data set [7] can be described thus: Average peak plasma drug concentration after id dose of 10 mg/kg in ferrets(Plasma samples collected from arterial blood). Particulars: ferret.
Data set [8] in a line: Average peak plasma drug concentration after id dose of 10 mg/kg in ferrets(Plasma samples collected from portal blood). Particulars: ferret.
Data set [9] is described as follows: Average peak plasma drug concentration after iv dose of 0.3 mg/kg in ferrets. The conditions noted are these: ferret.
Data set [10] concerns Mustela putorius furo. Briefly: Average area under curve value dosed at 10 mg/kg, id in ferrets. Particulars: ferret, in vivo, other.

Bounds are passed on as bounds.

On to `CCCC[C@H](O[C@@H](Cc1ccccc1)C(=O)N1CCC(OCOC)CC1)C(=O)N[C@@H](CC1CCCCC1)[C@@H](O)C[C@H](NS(C)(=O)=O)C(C)C`, for which the values for the IC50 in data set [1] and in [2] were 61 nM and 4.3 nM, respectively.

In the case of `CCCC[C@H](O[C@@H](Cc1ccccc1)C(=O)N1CCC(OCOC)CC1)C(=O)N[C@@H](CC1CCCCC1)[C@@H](O)C[C@H](C(=O)NCCc1ccccn1)C(C)C`, the logD in [3] and in data set [4] was over 5 throughout. In addition, the figures for the IC50 in data set [1] and in [2] were 5.1 nM and 1 nM, respectively.

With `CCCC[C@H](O[C@@H](Cc1ccccc1)C(=O)N1CCC(OCOC)CC1)C(=O)N[C@@H](CC1CCCCC1)[C@@H](O)C[C@H](NC(=O)OCCCN(C)C)C(C)C`, the logD amounted to 2.9 in [3] and 3.8 in [4]. Also, the figures for the IC50 in [1] and in data set [2] were 12 nM and 2.4 nM, respectively.

In data set [5], `CCCC[C@H](O[C@@H](Cc1ccccc1)C(=O)N1CCC(OCOC)CC1)C(=O)N[C@@H](CC1CCCCC1)[C@@H](O)C[C@H](C(=O)NCCCN(C)C)C(C)C` returned a bioavailability of 50%. Also, the Average AUC was found to be 573 ng·h/mL in data set [6] and 9670 ng·h/mL in data set [10]. In addition, the Cmax amounted to 5050 ng/mL in [7] (plasma (from arterial blood)), 4990 ng/mL in data set [8] (plasma (from portal blood)) and 2990 ng/mL in [9] (plasma). Further, the logD in data set [3] was determined as 2.3; in data set [4], 3.1. The molecule further showed an IC50 in data set [1] of 5.9 nM.

As for `CCCC[C@H](O[C@@H](Cc1ccccc1)C(=O)N1CCC(OCOC)CC1)C(=O)N[C@@H](CC1CCCCC1)[C@@H](O)C[C@H](C(=O)N1CCCN(C)CC1)C(C)C`, the logD in data set [3] is 3.7. Also, the IC50 amounted to 79 nM in data set [1] and 17 nM in data set [2].

In data set [1], `CCCCC(=O)N[C@@H](C[C@H](O)[C@H](CC1CCCCC1)NC(=O)[C@H](CCCC)O[C@@H](Cc1ccccc1)C(=O)N1CCC(OCOC)CC1)C(C)C` came in with an IC50 of 53 nM.

For `CCCC[C@H](O[C@@H](Cc1ccccc1)C(=O)N1CCC(OCOC)CC1)C(=O)N[C@@H](CC1CCCCC1)[C@@H](O)C[C@H](C(=O)NCCN(C)C)C(C)C`, the figures for the logD in [3] and in data set [4] were 3.3 and 4.3, respectively. The IC50 in data set [1] came out at 5.7 nM; in data set [2] it was 2.9 nM.

For the molecule `CCCC[C@H](O[C@@H](Cc1ccccc1)C(=O)N1CCC(OCOC)CC1)C(=O)N[C@@H](CC1CCCCC1)[C@@H](O)C[C@H](C(=O)N(C)CCN(C)C)C(C)C`, the logD was 3.3 in [3] and over 5 in data set [4]. Besides, the IC50 in [1] came out at 290 nM; in data set [2], 30 nM.

In the case of `CCCC[C@H](O[C@@H](Cc1ccccc1)C(=O)N1CCC(OCOC)CC1)C(=O)N[C@@H](CC1CCCCC1)[C@@H](O)C[C@H](NC(=O)NCCC)C(C)C`, the IC50 came to 16 nM in data set [1] and 2.4 nM in data set [2].

On to `CCCC[C@H](N[C@@H](Cc1ccccc1)C(=O)N1CCC(OCOC)CC1)C(=O)N[C@@H](CC1CCCCC1)[C@@H](O)C[C@H](NC(=O)OCCN1CCOCC1)C(C)C`, for which the logD in data set [3] amounted to 3.9; in data set [4] it was 4.3. For the same molecule, the IC50 in data set [1] turned out to be 9.5 nM; in data set [2] it was 1.8 nM.

With `CCCC[C@H](O[C@@H](Cc1ccccc1)C(=O)N1CCC(OCOC)CC1)C(=O)N[C@@H](CC1CCCCC1)[C@@H](O)C[C@H](NC(=O)OCCN1CCCC1)C(C)C`, the IC50 amounted to 13 nM in data set [1] and 2.5 nM in data set [2].

With `CCCCC(=O)N[C@@H](C[C@H](O)[C@H](CC1CCCCC1)NC(=O)[C@H](Cc1c[nH]cn1)NC(=O)[C@H](Cc1ccccc1)NC(=O)OC(C)(C)C)C(C)C`, the IC50 in data set [1] was determined as 200 nM; in data set [2], 6 nM.

Turning to `CC(C)[C@H](C[C@H](O)[C@H](CC1CCCCC1)NC(=O)[C@H](Cc1c[nH]cn1)NC(=O)[C@H](Cc1ccccc1)NC(=O)OC(C)(C)C)NC(=O)OCc1ccccc1`, in data set [2], the midpoint of inhibition, the IC50, lay at 11 nM.

As for `CCCC[C@H](O[C@@H](Cc1ccccc1)C(=O)N1CCC(OCOC)CC1)C(=O)N[C@@H](CC1CCCCC1)[C@@H](O)C[C@H](NC(=O)OCCC)C(C)C`, the values for the IC50 in data set [1] and in [2] were 14 nM and 1.5 nM, respectively.

The molecule `CCCC[C@H](O[C@@H](Cc1ccccc1)C(=O)N1CCC(OCOC)CC1)C(=O)N[C@@H](CC1CCCCC1)[C@@H](O)C[C@H](C(=O)NCCC[N+](C)(C)[O-])C(C)C` gave an IC50 in [1] of 5 nM.

With `CCCC[C@H](O[C@@H](Cc1ccccc1)C(=O)N1CCC(OCOC)CC1)C(=O)N[C@@H](CC1CCCCC1)[C@@H](O)C[C@H](NC(=O)OCCc1ccccn1)C(C)C`, the logD in data set [3] is 2.7; in data set [4] it was 3.4. Besides, the results for the IC50 in data set [1] and in data set [2] were 40 nM and 0.9 nM, respectively.

Turning to `CC(C)[C@H](C[C@H](O)[C@H](CC1CCCCC1)NC(=O)[C@H](Cc1c[nH]cn1)NC(=O)[C@H](Cc1ccccc1)NC(=O)OC(C)(C)C)NC(=O)OCCc1ccccn1`, the IC50 in data set [1] amounted to 17 nM; in data set [2], 1.3 nM.

Consider `CCCC[C@H](O[C@@H](Cc1ccccc1)C(=O)N1CCC(OCOC)CC1)C(=O)N[C@@H](CC1CCCCC1)[C@@H](O)C[C@H](C(=O)N(C)CCCN(C)C)C(C)C`, for which the logD amounted to 2.5 in [3] and 3.7 in data set [4]. Besides, the IC50 was 270 nM in [1] and 57 nM in data set [2].

In the case of `CC(C)[C@H](C[C@H](O)[C@H](CC1CCCCC1)NC(=O)[C@H](Cc1c[nH]cn1)NC(=O)[C@H](Cc1ccccc1)NC(=O)OC(C)(C)C)NC(=O)OCCN1CCCC1`, the IC50 in [1] came out at 28 nM; in [2], 2.7 nM.

Turning to `CC(C)[C@H](C[C@H](O)[C@H](CC1CCCCC1)NC(=O)[C@H](Cc1cnc[nH]1)NC(=O)[C@H](Cc1ccccc1)NC(=O)OC(C)(C)C)NC(=O)OCCN1CCOCC1`, the IC50 amounted to 4.7 nM in [1] and 1.3 nM in data set [2].

`CCCC[C@H](O[C@@H](Cc1ccccc1)C(=O)N1CCC(OCOC)CC1)C(=O)N[C@@H](CC1CCCCC1)[C@@H](O)C[C@H](NC(=O)OCc1ccccc1)C(C)C`: the IC50 came to 83 nM in [1] and 2.2 nM in [2].

For `CCCC[C@H](N[C@@H](Cc1ccccc1)C(=O)N1CCC(OCOC)CC1)C(=O)N[C@@H](CC1CCCCC1)[C@@H](O)C[C@H](C(=O)NCCCN(C)C)C(C)C`, the logD in data set [3] came out at 2.2; in data set [4] it was 2.8. Besides, the IC50 in [1] was determined as 6.1 nM; in data set [2] it was 2.1 nM.

In data set [2], `CCCC[C@H](O[C@@H](Cc1ccccc1)C(=O)N1CCC(OCOC)CC1)C(=O)N[C@@H](CC1CCCCC1)[C@@H](O)C[C@H](N)C(C)C` registered an IC50 of 110 nM.

For the molecule `CCCC[C@H](O[C@@H](Cc1ccccc1)C(=O)N1CCC(OCOC)CC1)C(=O)N[C@@H](CC1CCCCC1)[C@@H](O)C[C@H](NC(=O)OCCC(C)C)C(C)C`, the 50% inhibitory concentration (IC50) amounted to 56 nM in [1] and 5 nM in data set [2].

As for `CCCC[C@H](N[C@@H](Cc1ccccc1)C(=O)N1CCC(OCOC)CC1)C(=O)N[C@@H](CC1CCCCC1)[C@@H](O)C[C@H](C(=O)NCCCn1ccnc1)C(C)C`, the IC50 amounted to 7.6 nM in [1] and 2 nM in [2].

Regarding `CCCOC(=O)N[C@@H](C[C@H](O)[C@H](CC1CCCCC1)NC(=O)[C@H](Cc1cnc[nH]1)NC(=O)[C@H](Cc1ccccc1)NC(=O)OC(C)(C)C)C(C)C`, the IC50 in [1] is 16 nM; in data set [2], 1.7 nM.

In data set [2], `CC(C)[C@H](C[C@H](O)[C@H](CC1CCCCC1)NC(=O)[C@H](Cc1c[nH]cn1)NC(=O)[C@H](Cc1ccccc1)NC(=O)OC(C)(C)C)NS(C)(=O)=O` showed an IC50 of 28 nM. This counts as double-digit nanomolar.

`CCCNC(=O)N[C@@H](C[C@H](O)[C@H](CC1CCCCC1)NC(=O)[C@H](Cc1c[nH]cn1)NC(=O)[C@H](Cc1ccccc1)NC(=O)OC(C)(C)C)C(C)C`: the results for the IC50 in data set [1] and in [2] were 83 nM and 2.7 nM, respectively.

Take `CC(C)[C@H](C[C@H](O)[C@H](CC1CCCCC1)NC(=O)[C@H](Cc1cnc[nH]1)NC(=O)[C@H](Cc1ccccc1)NC(=O)OC(C)(C)C)NC(=O)OCCCN(C)C`: the figures for the IC50 in data set [1] and in [2] were 17 nM and 2.8 nM, respectively.

In data set [2], `CC(C)[C@H](C[C@H](O)[C@H](CC1CCCCC1)NC(=O)[C@H](Cc1c[nH]cn1)NC(=O)[C@H](Cc1ccccc1)NC(=O)OC(C)(C)C)NS(=O)(=O)C(C)C` showed an IC50 of 67 nM.

As for `CCCC[C@H](N[C@@H](Cc1ccccc1)C(=O)N1CCC(OCOC)CC1)C(=O)N[C@@H](CC1CCCCC1)[C@@H](O)C[C@H](C(=O)NCCCN1CCOCC1)C(C)C`, the bioavailability in data set [5] was 34%. For the same molecule, the Average AUC is 682 ng·h/mL in data set [6] and 7700 ng·h/mL in data set [10]. Moreover, the figures for the Cmax in data set [7] (in vivo), in [8] (in vivo) and in [9] (in vivo) were 3490 ng/mL, 4350 ng/mL and 1310 ng/mL, respectively. The logD was found to be 3.9 in [3] and 4.5 in data set [4].

For `CC(C)[C@H](C[C@H](O)[C@H](CC1CCCCC1)NC(=O)[C@H](Cc1c[nH]cn1)NC(=O)[C@H](Cc1ccccc1)NC(=O)OC(C)(C)C)NC(=O)OCCN(C)C`, the IC50 is 12 nM in data set [1] and 2.3 nM in [2].

On to `CCCC[C@H](O[C@@H](Cc1ccccc1)C(=O)N1CCC(OCOC)CC1)C(=O)N[C@@H](CC1CCCCC1)[C@@H](O)C[C@H](C(=O)NCCC[N+]1([O-])CCOCC1)C(C)C`, for which the figures for the IC50 in data set [1] and in data set [2] were 3.5 nM and 1.3 nM, respectively.
